Laboratory results: ChEMBL document CHEMBL3885861, “Open TG-GATES”

Species on record: Rattus norvegicus
Assay: Open TG-GATES - Regimen: Single
Assay type: toxicity, organism-based, Sprague-Dawley
Parameters: regimen Single, gender Male, age 6 weeks
Conditions: in vivo, po, route gavage; for APTT / Bas / Eos / Fbg / Hb / Ht / Lym / MCH / MCHC / MCV / Mono / Neu / PT / Plat / RBC / Ret / WBC: tissue Blood; for KIDNEY_L / KIDNEY_R / KIDNEY_TOTAL: tissue Kidney; for LIVER: tissue Liver; for A/G / ALP / ALT / AST / BUN / CRE / Ca / Cl / DBIL / GLC / IP / K / LDH / Na / PL / RALB / TBIL / TC / TG / TP / gamma-GTP: tissue Plasma
[1] = 150 mg/kg, 3 h, dose level Middle
[2] = 150 mg/kg, 6 h, dose level Middle
[3] = 150 mg/kg, 9 h, dose level Middle
[4] = 150 mg/kg, 24 h, dose level Middle
[5] = 500 mg/kg, 3 h, dose level High
[6] = 500 mg/kg, 6 h, dose level High
[7] = 500 mg/kg, 9 h, dose level High
[8] = 500 mg/kg, 24 h, dose level High

## CC(=O)Oc1cc(C(C)C)c(OCCN(C)C)cc1C [MOXISYLYTE]
[1]
  TERMINAL_BW: 205.7 g
  APTT: 22.9 s
  Bas: 0%
  Eos: 1%
  Fbg: 293 mg/dL
  Hb: 13.5 g/dL
  Ht: 39.8%
  Lym: 75%
  MCH: 21.3 pg
  MCHC: 33.8%
  MCV: 62.8 fL
  Mono: 1.6%
  Neu: 21.8%
  PT: 15.9 s
  Plat: 112.4 x10_4/uL
  RBC: 634.4 x10_4/ul
  Ret: 7.5%
  WBC: 68.3 x10_2/uL
  KIDNEY_L: 0.9 g
  KIDNEY_R: 0.9 g
  KIDNEY_TOTAL: 1.8 g
  LIVER: 9.3 g
  A/G: 1.3
  ALP: 1569.2 IU/L
  ALT: 44 IU/L
  AST: 81.4 IU/L
  BUN: 13.2 mg/dL
  CRE: 0.2 mg/dL
  Ca: 10.5 mg/dL
  Cl: 107.8 meq/L
  DBIL: 0.004 mg/dL
  GLC: 194 mg/dL
  IP: 9.3 mg/dL
  K: 4.2 meq/L
  LDH: 315.8 IU/L
  Na: 142 meq/L
  PL: 128.4 mg/dL
  RALB: 3.1 g/dL
  TBIL: 0.03 mg/dL
  TC: 75.8 mg/dL
  TG: 28.8 mg/dL
  TP: 5.4 g/dL
  gamma-GTP: 1.2 IU/L
[2]
  TERMINAL_BW: 206.6 g
  APTT: 21.8 s
  Bas: 0%
  Eos: 1%
  Fbg: 313.2 mg/dL
  Hb: 13.3 g/dL
  Ht: 38.6%
  Lym: 72%
  MCH: 20.8 pg
  MCHC: 34.4%
  MCV: 60.3 fL
  Mono: 2.2%
  Neu: 23.8%
  PT: 15.8 s
  Plat: 129.5 x10_4/uL
  RBC: 641.2 x10_4/ul
  Ret: 7.2%
  WBC: 67.7 x10_2/uL
  KIDNEY_L: 0.9 g
  KIDNEY_R: 0.9 g
  KIDNEY_TOTAL: 1.9 g
  LIVER: 8.9 g
  A/G: 1.2
  ALP: 1449.6 IU/L
  ALT: 39.4 IU/L
  AST: 74.8 IU/L
  BUN: 10.6 mg/dL
  CRE: 0.2 mg/dL
  Ca: 10.6 mg/dL
  Cl: 108.4 meq/L
  DBIL: 0.01 mg/dL
  GLC: 181.8 mg/dL
  IP: 9 mg/dL
  K: 4.8 meq/L
  LDH: 253.6 IU/L
  Na: 140.8 meq/L
  PL: 137.4 mg/dL
  RALB: 3 g/dL
  TBIL: 0.008 mg/dL
  TC: 72.2 mg/dL
  TG: 61.6 mg/dL
  TP: 5.4 g/dL
  gamma-GTP: 1 IU/L
[3]
  TERMINAL_BW: 208.5 g
  APTT: 21.5 s
  Bas: 0%
  Eos: 1%
  Fbg: 308.2 mg/dL
  Hb: 13.3 g/dL
  Ht: 38.7%
  Lym: 72%
  MCH: 21.2 pg
  MCHC: 34.5%
  MCV: 61.4 fL
  Mono: 2.4%
  Neu: 23.8%
  PT: 15.9 s
  Plat: 118.6 x10_4/uL
  RBC: 631.2 x10_4/ul
  Ret: 8.4%
  WBC: 93 x10_2/uL
  KIDNEY_L: 1 g
  KIDNEY_R: 1 g
  KIDNEY_TOTAL: 1.9 g
  LIVER: 8.5 g
  A/G: 1.3
  ALP: 1409.6 IU/L
  ALT: 38.8 IU/L
  AST: 70.2 IU/L
  BUN: 11.4 mg/dL
  CRE: 0.2 mg/dL
  Ca: 10.5 mg/dL
  Cl: 107.8 meq/L
  DBIL: 0.008 mg/dL
  GLC: 181.8 mg/dL
  IP: 9.7 mg/dL
  K: 4.3 meq/L
  LDH: 240.2 IU/L
  Na: 141.8 meq/L
  PL: 135 mg/dL
  RALB: 3.1 g/dL
  TBIL: 0.026 mg/dL
  TC: 75.6 mg/dL
  TG: 47.4 mg/dL
  TP: 5.6 g/dL
  gamma-GTP: 1 IU/L
[4]
  TERMINAL_BW: 221.8 g
  APTT: 21.2 s
  Bas: 0%
  Eos: 0.8%
  Fbg: 313.8 mg/dL
  Hb: 13.5 g/dL
  Ht: 38.6%
  Lym: 79.6%
  MCH: 21.3 pg
  MCHC: 34.9%
  MCV: 61.2 fL
  Mono: 2%
  Neu: 17.4%
  PT: 15.8 s
  Plat: 121.2 x10_4/uL
  RBC: 632.2 x10_4/ul
  Ret: 7.7%
  WBC: 96.5 x10_2/uL
  KIDNEY_L: 1 g
  KIDNEY_R: 1 g
  KIDNEY_TOTAL: 2 g
  LIVER: 10.8 g
  A/G: 1.2
  ALP: 1617.2 IU/L
  ALT: 43.6 IU/L
  AST: 70.8 IU/L
  BUN: 17.2 mg/dL
  CRE: 0.2 mg/dL
  Ca: 11.3 mg/dL
  Cl: 106 meq/L
  DBIL: 0 mg/dL
  GLC: 179.4 mg/dL
  IP: 7.4 mg/dL
  K: 4.3 meq/L
  LDH: 247.2 IU/L
  Na: 141.8 meq/L
  PL: 163.2 mg/dL
  RALB: 3.2 g/dL
  TBIL: 0.006 mg/dL
  TC: 81.6 mg/dL
  TG: 178.8 mg/dL
  TP: 5.9 g/dL
  gamma-GTP: 1.4 IU/L
[5]
  TERMINAL_BW: 212.3 g
  APTT: 21.6 s
  Bas: 0%
  Eos: 1.2%
  Fbg: 311.2 mg/dL
  Hb: 12.6 g/dL
  Ht: 37.4%
  Lym: 72.6%
  MCH: 21.4 pg
  MCHC: 33.7%
  MCV: 63.2 fL
  Mono: 2%
  Neu: 23.6%
  PT: 16 s
  Plat: 115.9 x10_4/uL
  RBC: 590.6 x10_4/ul
  Ret: 8.3%
  WBC: 64.3 x10_2/uL
  KIDNEY_L: 0.9 g
  KIDNEY_R: 1 g
  KIDNEY_TOTAL: 1.9 g
  LIVER: 9.7 g
  A/G: 1.4
  ALP: 1326.8 IU/L
  ALT: 43 IU/L
  AST: 81.6 IU/L
  BUN: 14.6 mg/dL
  CRE: 0.1 mg/dL
  Ca: 10.6 mg/dL
  Cl: 107.8 meq/L
  DBIL: 0.014 mg/dL
  GLC: 196.8 mg/dL
  IP: 10.3 mg/dL
  K: 4.5 meq/L
  LDH: 251 IU/L
  Na: 142.2 meq/L
  PL: 132.2 mg/dL
  RALB: 3.1 g/dL
  TBIL: 0.028 mg/dL
  TC: 79 mg/dL
  TG: 33.8 mg/dL
  TP: 5.5 g/dL
  gamma-GTP: 1 IU/L
[6]
  TERMINAL_BW: 211.5 g
  APTT: 21.2 s
  Bas: 0%
  Eos: 1%
  Fbg: 318.6 mg/dL
  Hb: 13 g/dL
  Ht: 38%
  Lym: 77%
  MCH: 21.2 pg
  MCHC: 34.1%
  MCV: 62.1 fL
  Mono: 2.2%
  Neu: 19.2%
  PT: 15.6 s
  Plat: 119.7 x10_4/uL
  RBC: 611.8 x10_4/ul
  Ret: 8.1%
  WBC: 63.2 x10_2/uL
  KIDNEY_L: 1 g
  KIDNEY_R: 1 g
  KIDNEY_TOTAL: 2 g
  LIVER: 9.8 g
  A/G: 1.3
  ALP: 1572.4 IU/L
  ALT: 40.6 IU/L
  AST: 75.2 IU/L
  BUN: 11.8 mg/dL
  CRE: 0.1 mg/dL
  Ca: 10.5 mg/dL
  Cl: 107.8 meq/L
  DBIL: 0.014 mg/dL
  GLC: 194.2 mg/dL
  IP: 10 mg/dL
  K: 4.5 meq/L
  LDH: 239 IU/L
  Na: 141 meq/L
  PL: 141.6 mg/dL
  RALB: 3.1 g/dL
  TBIL: 0.026 mg/dL
  TC: 75.4 mg/dL
  TG: 42.4 mg/dL
  TP: 5.5 g/dL
  gamma-GTP: 1.2 IU/L
[7]
  TERMINAL_BW: 205.5 g
  APTT: 20.8 s
  Bas: 0%
  Eos: 0.8%
  Fbg: 351 mg/dL
  Hb: 13.6 g/dL
  Ht: 40.1%
  Lym: 69.2%
  MCH: 21.4 pg
  MCHC: 33.9%
  MCV: 63.3 fL
  Mono: 2.6%
  Neu: 27.4%
  PT: 15.8 s
  Plat: 124.5 x10_4/uL
  RBC: 633.8 x10_4/ul
  Ret: 7.8%
  WBC: 68.7 x10_2/uL
  KIDNEY_L: 0.9 g
  KIDNEY_R: 1 g
  KIDNEY_TOTAL: 1.9 g
  LIVER: 9.1 g
  A/G: 1.2
  ALP: 1633.4 IU/L
  ALT: 41 IU/L
  AST: 76.6 IU/L
  BUN: 11.4 mg/dL
  CRE: 0.1 mg/dL
  Ca: 10.4 mg/dL
  Cl: 108.6 meq/L
  DBIL: 0.018 mg/dL
  GLC: 196.6 mg/dL
  IP: 9.9 mg/dL
  K: 4.3 meq/L
  LDH: 223.6 IU/L
  Na: 142.2 meq/L
  PL: 142 mg/dL
  RALB: 3.1 g/dL
  TBIL: 0.034 mg/dL
  TC: 74.8 mg/dL
  TG: 49.4 mg/dL
  TP: 5.7 g/dL
  gamma-GTP: 1.2 IU/L
[8]
  TERMINAL_BW: 215.6 g
  APTT: 19.4 s
  Bas: 0%
  Eos: 0.8%
  Fbg: 300.6 mg/dL
  Hb: 13.4 g/dL
  Ht: 38.6%
  Lym: 76.4%
  MCH: 22.1 pg
  MCHC: 34.7%
  MCV: 63.6 fL
  Mono: 2%
  Neu: 20%
  PT: 15.8 s
  Plat: 140.3 x10_4/uL
  RBC: 607.2 x10_4/ul
  Ret: 8.2%
  WBC: 111.6 x10_2/uL
  KIDNEY_L: 1 g
  KIDNEY_R: 1 g
  KIDNEY_TOTAL: 1.9 g
  LIVER: 10.4 g
  A/G: 1.2
  ALP: 1455.6 IU/L
  ALT: 44.8 IU/L
  AST: 73.4 IU/L
  BUN: 18 mg/dL
  CRE: 0.1 mg/dL
  Ca: 11.1 mg/dL
  Cl: 106.4 meq/L
  DBIL: 0 mg/dL
  GLC: 176.8 mg/dL
  IP: 8.6 mg/dL
  K: 4.1 meq/L
  LDH: 241 IU/L
  Na: 142 meq/L
  PL: 149.8 mg/dL
  RALB: 3 g/dL
  TBIL: 0.006 mg/dL
  TC: 77 mg/dL
  TG: 100.6 mg/dL
  TP: 5.6 g/dL
  gamma-GTP: 1 IU/L
